Here are results for 5 compounds from article PMC7112222, “Investigation of pyrimidine nucleoside analogues as chemical probes to assess compound effects on the proliferation of Trypanosoma cruzi intracellular parasites” (PLoS Neglected Tropical Diseases, 2020).

Where two headings read alike, the source gives them in different places.

The test system of one assay is HEK293 cells. Put plainly: Redox-based assay to assess HEK293 viability. The settings on record: 48 hours exposure, highest test concentration 87 μM, EdU value estimated, relative to Emax plateau of 57%. Type of assay: cell-based, human. Here is the method:
To determine the effect of the nucleoside analogues against a replicating mammalian cell line, analogues were tested against HEK293 cells, utilising a REDOX-based metabolic assay to assess cell viability as previously described. […] Experiments were performed over two biological replicates.

The next assay relates to T. cruzi amastigote DNA. In words: Incorporation of pyrimidine nucleoside analogues into T. cruzi amastigote DNA (click chemistry, colocalisation with Hoechst). The settings on record: for incorporation (no incorporation observed): 48 hours, concentrations up to a maximum of 73 μM. Type of assay: cell-based, Trypanosoma cruzi. Here is the method:
T. cruzi infected 3T3 fibroblasts were initially exposed to nucleoside analogues for 48 hours at concentrations ranging from 73 μM to 1.8 x10^-4 μM. Host cell, parasite and compound additions were carried out as previously described. Cells were then stained using a click chemistry azide cocktail, followed by Hoechst to identify nuclear material, as previously reported. The freshly prepared azide cocktail consisted of a final concentration of 5 μM of Alexa Fluor 488 azide (Thermo Fisher Scientific, USA), 1 mM copper sulfate (Sigma Aldrich, USA) and 100 mM sodium ascorbate (Sigma Aldrich, USA), in DPBS. Wells were imaged on an Opera image-based reader (Perkin Elmer, USA) at 20x magnification with 405 nm (defined as Hoechst channel) and 488 nm (defined as Alexa 488 channel) lasers using filter sets/bandwidth (emission) of 450/50 nm and 540/75 nm, respectively. To determine nucleoside analogue incorporation into T. cruzi amastigote DNA, a script was developed utilising the Columbus (PerkinElmer, USA) image-based analysis and data handling platform (CHEMICAL LABEL INCORPORATION SCRIPT). Nucleoside analogues were also tested for DNA incorporation following 2, 4 and 24 hours exposure, at the same concentrations. All experiments were performed in duplicate. The colocalisation of nucleoside analogues and Hoechst (replicating parasites) at each time point (48, 4 and 2 hours) was compared using GraphPad Prism 5.
A CHEMICAL LABEL INCORPORATION SCRIPT developed in Columbus firstly identified Hoechst stained parasites within host cells by spot analysis, utilizing the same building block analysis as we had previously developed to determine T. cruzi infected cells. The physical definition of amastigote DNA was identified by Hoechst, with the only modification being that as there was no cytoplasmic marker, thus segmentation borders in the Hoechst channel were applied, which effectively separated host cells (Fig 2). Further building blocks were added to calculate the intensity of Alexa Fluor 488 within the spots identified by Hoechst, in infected cells. This script was first applied to images to determine the mean fluorescence intensity in the Alexa 488 channel of Hoechst identified parasites, without the addition of the chemical label. The mean plus three times the standard deviation of this intensity was used to define values above background, thus the minimum intensity above background required to identify parasite DNA which successfully incorporated the chemical label. An input box was incorporated into the script, in which this minimum intensity above background was entered. Parameters of the developed script, “CHEMICAL LABEL INCORPORATION” are shown in S1 Table.
• Number of T. cruzi amastigote infected cells (≥5 parasites per cell, identified with Hoechst). • Number of Hoechst identified T. cruzi parasites (in infected cells). • Number of parasites incorporating chemical label (T. cruzi parasites with Alexa 488 intensity above background, in infected cells). • % chemical label incorporation. Alexa 488 spots in infected cells (above background) NO / Hoechst spots in infected cells NO *100 = Percentage colocalisation; where NO = number of objects. • Number of host cells.

For assay [1], the system named is T. cruzi intracellular amastigotes. In words: Image-based assay of the number of T. cruzi infected cells (intracellular amastigotes in 3T3 host cells). To be noted: for T. cruzi Wash off IC50 value: compound wash off, further 72 hours without compound; for inhibition at 183 µM / IC50 / Emax: Trypanosoma cruzi; for inhibition at 183 µM: 48 h, read-out: inhibition of T. cruzi growth at highest test concentration. Format: cell-based, Trypanosoma cruzi. Here is the method: (§1) Parasites and host cells were maintained as outlined previously. Briefly, host 3T3 fibroblasts (ATCC, CCL-92) were grown in RPMI medium (Thermo Fisher Scientific, USA) with no phenol red, supplemented with 10% FBS (Thermo Fisher Scientific, USA) and incubated at 37°C in 5% CO2. Host cells were harvested at 70% confluency and were split every 2–3 days in 175 cm^2 flasks. 3T3 cells were cultured up to passage 7 as contact inhibition was reduced or lost at higher passages. Prior to infection with T. cruzi trypomastigotes, host cells were seeded at 1.2 x 10^6 cells in 75 cm^2 or 4 x 10^5 cells in 25 cm^2 flasks and grown for 24 hours before parasite addition. Parasites were added at a multiplicity of infection (MOI) of 10:1 and incubated for 24 hours before non-infected trypomastigotes were washed off the host cell bed with PBS supplemented with Ca^2+ and Mg^2+ (Thermo Fisher Scientific, USA). Incubation was continued for a further 3 days, until tissue culture trypomastigotes began to egress from host cells. Egressed parasites were used for assays or to continue the infective life cycle in vitro.
The activity of the nucleoside analogues against T. cruzi intracellular amastigotes following 24, 48 hours exposure and compound wash off, was determined using image-based techniques as previously described. Briefly, 14-point serial dilutions of the compounds in 100% DMSO were prepared and then further diluted in sterile water at a ratio of 1:21 compound: water. Five microliters of the diluted compounds were added to wells of T. cruzi infected host cells, using a MiniTrak compound handling device (Perkin Elmer, USA) with final concentrations in the plate ranging from 183 μM to 4.6 x 10^−4 μM. All experiments were performed with two separate biological replicates.
IC50 values for inhibitory activity of both the nucleoside analogues tested as DNA probes and known inhibitors tested to determine their effect on replication of T. cruzi were calculated in GraphPad Prism 5, using sigmoidal dose response with variable slope. […] The p-value for difference in the % activity at Emax concentrations for compounds with known activity (EdU identified parasites, compared to Hoechst identified parasites) against T. cruzi was determined using GraphPad Prism 5, using an unpaired student’s t-test. […] The Emax for each compound was at least two data points in from the beginning of the plateau of activity in the IC50 curve, as previously described.

The subject of another assay is 3T3 cells. In words: Image-based assay, effect on 3T3 host cells. To be noted: 48 h, highest test concentration 183 μM. Format: cell-based. As to the method:
as §1
[…] Briefly, 14-point serial dilutions of the compounds in 100% DMSO were prepared and then further diluted in sterile water at a ratio of 1:21 compound: water. Five microliters of the diluted compounds were added to wells of T. cruzi infected host cells, using a MiniTrak compound handling device (Perkin Elmer, USA) with final concentrations in the plate ranging from 183 μM to 4.6 x 10^−4 μM. All experiments were performed with two separate biological replicates.
Image analysis was performed with a script developed in Columbus software (CHEMICAL LABEL INCORPORATION SCRIPT). Control wells were also imaged at an increased, 60x magnification to show the distribution of staining and the structure of the parasites within host cells. Eight background control wells consisted of infected host cells, fixed and exposed to Hoechst and the click chemistry cocktail, without the addition of the chemical probe EdU. […] The percentage activity of compounds against parasite number / infected cells (identified with Hoechst) was calculated against a positive control of 12 μM of NFX for the parasite and 30 μM of PURO the host cells; and a negative control of 0.47% DMSO. All images taken were not modified and were taken on an Opera, confocal image-based reader.

Assay [2] has as its system T. cruzi intracellular amastigotes. In words: Detection of T. cruzi replication following exposure to inhibitors (EdU incorporation vs Hoechst). Type of assay: cell-based, Trypanosoma cruzi. To be noted: for IC50: 48 hours exposure, mean ± SD. As to the method:
The addition of host cells, parasites and compounds were as described for the T. cruzi image based method previously reported. […] Addition of nuclear and cytoplasmic dyes was undertaken as previously reported and images captured on an Opera confocal image-based system at 20x magnification. Image analysis was performed with a script developed in Columbus software (CHEMICAL LABEL INCORPORATION SCRIPT). Control wells were also imaged at an increased, 60x magnification to show the distribution of staining and the structure of the parasites within host cells. Eight background control wells consisted of infected host cells, fixed and exposed to Hoechst and the click chemistry cocktail, without the addition of the chemical probe EdU. […] All images taken were not modified and were taken on an Opera, confocal image-based reader.

Where [3] appears, read: 24 hours exposure, highest test concentration 183 μM.
The mark [4] stands for this setting: 48 hours incubation, highest test concentration 183 μM.
The mark [5] stands for this setting: 48 hours exposure, well-established intracellular infection assay, mean ± SD, POSA value based on sub-optimal effect (Emax 75%), read-out: IC50 value Infected cells (Hoechst).
Where [6] appears, read: Trypanosoma cruzi, then 0.37 μM EdU for 4 hours, number of EdU incorporating parasites, read-out: IC50 value Amastigotes (EdU).
[7] abbreviates: Trypanosoma cruzi, number of Hoechst identified parasites in infected cells, read-out: IC50 value Amastigotes (Hoechst).

`C#Cc1cn([C@@H]2O[C@H](CO)[C@@H](O)[C@@H]2Cl)c(=O)[nH]c1=O` [Cl-ara-EdU, (2′S)-chloro-2′-deoxy-5-ethynyl-uridine]: the “HEK293 IC50 value” with HEK293 cells is “NA (NA = ≤50% activity at the highest concentration tested and an IC50 value could not be determined)”. Moreover, in the assay on T. cruzi amastigote DNA, the “incorporation into T. cruzi DNA following 48 hours incubation (in words)” value is recorded as “did not” and the “incorporation (no incorporation observed)” value is recorded as below 20%. In addition, the “T. cruzi 24 IC50 value” in assay [1] (setting [3]) is “NA (NA = ≤50% activity at the highest concentration tested and an IC50 value could not be determined)”. In assay [1] (setting [4]), the “T. cruzi Wash off IC50 value” was “NA (NA = ≤50% activity at the highest concentration tested and an IC50 value could not be determined)”; the “T. cruzi 48 IC50 value” was “NA (NA = ≤50% activity at the highest concentration tested and an IC50 value could not be determined)”. Also, the inhibition at 183 µM in assay [1] (48 hours incubation) is at most 50%. For the same compound, the “Host cell 3T3 IC50 value 48 h” value in the assay on 3T3 cells is “NA (NA = ≤50% activity at the highest concentration tested and an IC50 value could not be determined)”.

Turning to `COc1ccc(C[C@H](N)C(=O)N[C@H]2[C@@H](O)[C@H](n3cnc4c(N(C)C)ncnc43)O[C@@H]2CO)cc1` [PURO, puromycin], the IC50 with HEK293 cells (Homo sapiens, HEK293) is 410 ± 170 nM; in assay [1] (24 hours exposure, highest test concentration 183 μM, read-out: T. cruzi 24 IC50 value), 7600 ± 1200 nM; in assay [1] (48 hours incubation, highest test concentration 183 μM, read-out: T. cruzi 48 IC50 value), 2360 ± 780 nM; with 3T3 cells (Mus musculus, NIH3T3, read-out: Host cell 3T3 IC50 value 48 h), 4400 ± 800 nM. Besides, the Emax in assay [1] (24 hours exposure, read-out: T. cruzi 24 relative Emax (in brackets) (converted)) was 92%; in assay [1] (48 hours incubation, read-out: T. cruzi 48 relative Emax (in brackets) (converted)) it was 100%.

As for `C#Cc1cn([C@@H]2O[C@H](CO)[C@@H](O)[C@@H]2Br)c(=O)[nH]c1=O` [Br-ara-EdU, (2′S)-2′-bromo-2′-deoxy-5-ethynyl-uridine], the “HEK293 IC50 value” with HEK293 cells was “NA (NA = ≤50% activity at the highest concentration tested and an IC50 value could not be determined)”. Besides, in the assay with T. cruzi amastigote DNA, the “incorporation into T. cruzi DNA following 48 hours incubation (in words)” value is recorded as “did not” and the “incorporation (no incorporation observed)” value was below 20%. For the same compound, the “T. cruzi 24 IC50 value” in assay [1] (setting [3]) was “NA (NA = ≤50% activity at the highest concentration tested and an IC50 value could not be determined)”. In addition, in assay [1] (setting [4]), the “T. cruzi Wash off IC50 value” is “NA (NA = ≤50% activity at the highest concentration tested and an IC50 value could not be determined)”; the “T. cruzi 48 IC50 value” was “NA (NA = ≤50% activity at the highest concentration tested and an IC50 value could not be determined)”. Besides, the inhibition at 183 µM in assay [1] (48 hours incubation) was at most 50%. Besides, in the assay with 3T3 cells, the “Host cell 3T3 IC50 value 48 h” value is “NA (NA = ≤50% activity at the highest concentration tested and an IC50 value could not be determined)”.

As to `O=C(Cn1ccnc1[N+](=O)[O-])NCc1ccccc1` [BZ, benznidazole], the half-inhibitory concentration (IC50) came to 6700 ± 640 nM in assay [1] (setting [5]), 1290 ± 250 nM in assay [2] (setting [6]) and 2800 ± 940 nM in assay [2] (setting [7]). The inhibition at 127 µM in assay [2] (Trypanosoma cruzi, 2 h, read-out: mean inhibition of incorporation of EdU into the parasite DNA) stood at 72 ± 8.7%.

As for `CC[C@@H]([C@H](C)O)n1ncn(-c2ccc(N3CCN(c4ccc(OC[C@@H]5CO[C@@](Cn6cncn6)(c6ccc(F)cc6F)C5)cc4)CC3)cc2)c1=O` [POSA, posaconazole], the IC50 came to 4 ± 8.2 nM in assay [1] (setting [5]), 3.8 ± 1 nM in assay [2] (setting [6]) and 3.8 ± 1 nM in assay [2] (setting [7]). Further, the Emax in assay [1] (48 hours, infected cells (Hoechst), read-out: maximum activity (Emax) against T. cruzi) worked out at 75%. The “inhibition of EdU incorporation” value in assay [2] (2 hours exposure, 1 μM (250 x the IC50 value), then 1.83 μM EdU 2 hours) is reported as “no inhibition”.
